Reference: PubChem BioAssay (NCI)
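Growth conditions: 96-well plates. Treatment: test compound, 48 hours, 5 concentrations. Analysis: linear interpolation between bracketing concentrations; unreached endpoints set to highest concentration. GI50: concentration for 50% inhibition of growth. At the TGI there is no net growth.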

Columns and labels:
Assay in all cases: inhibition of tumour cell growth, NCI panel, 48 h
[1] = tested on: 786-0 renal
[2] = tested on: A498 renal
[3] = tested on: A549 NSCLC
[4] = tested on: ACHN renal
[5] = tested on: BT-549 breast
[6] = tested on: CAKI-1 renal
[7] = tested on: CCRF-CEM leukemia
[8] = tested on: COLO 205 colon
[9] = tested on: DU-145 prostate
[10] = tested on: EKVX NSCLC
[11] = tested on: HCC-2998 colon
[12] = tested on: HCT-116 colon
[13] = tested on: HCT-15 colon
[14] = tested on: HL-60(TB) leukemia
[15] = tested on: HOP-62 NSCLC
[16] = tested on: HOP-92 NSCLC
[17] = tested on: HS 578T breast
[18] = tested on: HT29 colon
[19] = tested on: IGROV1 ovarian
[20] = tested on: K-562 leukemia
[21] = tested on: KM12 colon
[22] = tested on: LOX IMVI melanoma
[23] = tested on: M14 melanoma
[24] = tested on: MALME-3M melanoma
[25] = tested on: MCF7 breast
[26] = tested on: MDA-MB-231 breast
[27] = tested on: MDA-MB-435
[28] = tested on: MOLT-4 leukemia
[29] = tested on: NCI-H226 lung
[30] = tested on: NCI-H23 lung
[31] = tested on: NCI-H460 lung
[32] = tested on: NCI-H522 lung
[33] = tested on: NCI/ADR-RES ovarian
[34] = tested on: OVCAR-3 ovarian
[35] = tested on: OVCAR-4 ovarian
[36] = tested on: OVCAR-5 ovarian
[37] = tested on: OVCAR-8 ovarian
[38] = tested on: PC-3 prostate
[39] = tested on: RPMI-8226 leukemia
[40] = tested on: RXF 393 renal
[41] = tested on: SF-268 CNS
[42] = tested on: SF-295 CNS
[43] = tested on: SF-539 CNS
[44] = tested on: SK-MEL-2 melanoma
[45] = tested on: SK-MEL-28 melanoma
[46] = tested on: SK-MEL-5 melanoma
[47] = tested on: SK-OV-3 ovarian
[48] = tested on: SN12C renal
[49] = tested on: SNB-19 CNS
[50] = tested on: SNB-75 CNS
[51] = tested on: SR leukemia
[52] = tested on: SW-620 colon
[53] = tested on: T-47D breast
[54] = tested on: TK-10 renal
[55] = tested on: U251 CNS
[56] = tested on: UACC-257 melanoma
[57] = tested on: UACC-62 melanoma
[58] = tested on: UO-31 renal

C=CC12CCN(CC1)C(C(O)c1ccnc3ccc(OC)cc13)C2 (stereo not given)
GI50 [1]: > 100 µM
TGI [1]: > 100 µM
GI50 [2]: 60.5 µM
TGI [2]: > 100 µM
GI50 [3]: > 100 µM
TGI [3]: > 100 µM
GI50 [4]: > 100 µM
TGI [4]: > 100 µM
GI50 [5]: > 100 µM
TGI [5]: > 100 µM
GI50 [6]: > 100 µM
TGI [6]: > 100 µM
GI50 [7]: > 100 µM
TGI [7]: > 100 µM
GI50 [8]: 94.8 µM
TGI [8]: > 100 µM
GI50 [9]: > 100 µM
TGI [9]: > 100 µM
GI50 [10]: > 100 µM
TGI [10]: > 100 µM
GI50 [11]: > 100 µM
TGI [11]: > 100 µM
GI50 [12]: > 100 µM
TGI [12]: > 100 µM
GI50 [13]: 96.2 µM
TGI [13]: > 100 µM
GI50 [14]: > 100 µM
TGI [14]: > 100 µM
GI50 [15]: > 100 µM
TGI [15]: > 100 µM
GI50 [16]: 35.2 µM
TGI [16]: > 100 µM
GI50 [17]: > 100 µM
TGI [17]: > 100 µM
GI50 [18]: 61.9 µM
TGI [18]: > 100 µM
GI50 [19]: > 100 µM
TGI [19]: > 100 µM
GI50 [20]: > 100 µM
TGI [20]: > 100 µM
GI50 [21]: > 100 µM
TGI [21]: > 100 µM
GI50 [22]: 15.4 µM
TGI [22]: > 100 µM
GI50 [23]: 87.1 µM
TGI [23]: > 100 µM
GI50 [24]: 86.6 µM
TGI [24]: > 100 µM
GI50 [25]: 84.3 µM
TGI [25]: > 100 µM
GI50 [26]: > 100 µM
TGI [26]: > 100 µM
GI50 [27]: > 100 µM
TGI [27]: > 100 µM
GI50 [28]: > 100 µM
TGI [28]: > 100 µM
GI50 [29]: > 100 µM
TGI [29]: > 100 µM
GI50 [30]: > 100 µM
TGI [30]: > 100 µM
GI50 [31]: > 100 µM
TGI [31]: > 100 µM
GI50 [32]: 47.8 µM
TGI [32]: > 100 µM
GI50 [33]: > 100 µM
TGI [33]: > 100 µM
GI50 [34]: > 100 µM
TGI [34]: > 100 µM
GI50 [35]: > 100 µM
TGI [35]: > 100 µM
GI50 [36]: > 100 µM
TGI [36]: > 100 µM
GI50 [37]: > 100 µM
TGI [37]: > 100 µM
GI50 [38]: > 100 µM
TGI [38]: > 100 µM
GI50 [39]: > 100 µM
TGI [39]: > 100 µM
GI50 [40]: 80 µM
TGI [40]: > 100 µM
GI50 [41]: > 100 µM
TGI [41]: > 100 µM
GI50 [42]: > 100 µM
TGI [42]: > 100 µM
GI50 [43]: > 100 µM
TGI [43]: > 100 µM
GI50 [44]: > 100 µM
TGI [44]: > 100 µM
GI50 [45]: 79.8 µM
TGI [45]: > 100 µM
GI50 [46]: 39.2 µM
TGI [46]: > 100 µM
GI50 [47]: > 100 µM
TGI [47]: > 100 µM
GI50 [48]: > 100 µM
TGI [48]: > 100 µM
GI50 [49]: > 100 µM
TGI [49]: > 100 µM
GI50 [50]: 95.3 µM
TGI [50]: > 100 µM
GI50 [51]: > 100 µM
TGI [51]: > 100 µM
GI50 [52]: > 100 µM
TGI [52]: > 100 µM
GI50 [53]: > 100 µM
TGI [53]: > 100 µM
GI50 [54]: > 100 µM
TGI [54]: > 100 µM
GI50 [55]: > 100 µM
TGI [55]: > 100 µM
GI50 [56]: 74.2 µM
TGI [56]: > 100 µM
GI50 [57]: > 100 µM
TGI [57]: > 100 µM
GI50 [58]: 39.7 µM
TGI [58]: > 100 µM

Cc1cccc(NC2=C(Cl)C(=O)c3nc(C)ccc3C2=O)c1
GI50 [1]: 1.79 µM
TGI [1]: 3.36 µM
GI50 [2]: 0.235 µM
TGI [2]: 2.43 µM
GI50 [3]: 2.18 µM
TGI [3]: 6.11 µM
GI50 [4]: 1.24 µM
TGI [4]: 2.53 µM
GI50 [5]: 1.41 µM
TGI [5]: 2.77 µM
GI50 [6]: 1.06 µM
TGI [6]: 2.26 µM
GI50 [7]: 2.29 µM
TGI [7]: > 100 µM
GI50 [8]: 1.86 µM
TGI [8]: 4.1 µM
GI50 [9]: 1.27 µM
TGI [9]: 2.55 µM
GI50 [10]: 1.47 µM
TGI [10]: 2.8 µM
GI50 [11]: 1.69 µM
TGI [11]: 3.22 µM
GI50 [12]: 0.44 µM
TGI [12]: 1.86 µM
GI50 [13]: 0.431 µM
TGI [13]: 2.09 µM
GI50 [14]: 2.14 µM
TGI [14]: 5.8 µM
GI50 [15]: 0.529 µM
TGI [15]: 2.88 µM
GI50 [16]: 1.66 µM
TGI [16]: 3.27 µM
GI50 [17]: 1.68 µM
TGI [17]: 4.58 µM
GI50 [18]: 2.94 µM
TGI [18]: 11.9 µM
GI50 [19]: 1.18 µM
TGI [19]: 2.6 µM
GI50 [20]: 0.45 µM
TGI [20]: > 100 µM
GI50 [21]: 2.67 µM
TGI [21]: 10.8 µM
GI50 [22]: 0.351 µM
TGI [22]: 1.46 µM
GI50 [23]: 1.32 µM
TGI [23]: 2.72 µM
GI50 [24]: 1.65 µM
TGI [24]: 3.07 µM
GI50 [25]: 0.656 µM
TGI [25]: 3.06 µM
GI50 [26]: 0.904 µM
TGI [26]: 2.42 µM
GI50 [27]: 0.218 µM
TGI [27]: 0.469 µM
GI50 [28]: 2.2 µM
TGI [28]: > 100 µM
GI50 [29]: 1.1 µM
TGI [29]: 2.78 µM
GI50 [30]: 0.512 µM
TGI [30]: 2.13 µM
GI50 [31]: 1.64 µM
TGI [31]: 3.82 µM
GI50 [32]: 1.81 µM
TGI [32]: 4.88 µM
GI50 [33]: 1.58 µM
TGI [33]: 4.14 µM
GI50 [34]: 0.262 µM
TGI [34]: 1.18 µM
GI50 [35]: 1.2 µM
TGI [35]: 2.45 µM
GI50 [36]: 1.82 µM
TGI [36]: 3.61 µM
GI50 [38]: 1.29 µM
TGI [38]: 4.8 µM
GI50 [39]: 1.48 µM
TGI [39]: 5.17 µM
GI50 [40]: 1.46 µM
TGI [40]: 2.84 µM
GI50 [41]: 2.1 µM
TGI [41]: 6.4 µM
GI50 [42]: 1.49 µM
TGI [42]: 2.96 µM
GI50 [43]: 1.39 µM
TGI [43]: 2.75 µM
GI50 [44]: 1.93 µM
TGI [44]: 4.19 µM
GI50 [45]: 1.71 µM
TGI [45]: 3.14 µM
GI50 [46]: 1.66 µM
TGI [46]: 3.03 µM
GI50 [47]: 11.7 µM
TGI [47]: 24.2 µM
GI50 [48]: 1.17 µM
TGI [48]: 2.5 µM
GI50 [49]: 1.29 µM
TGI [49]: 10.3 µM
GI50 [50]: 2.73 µM
TGI [50]: 7.33 µM
GI50 [51]: 1.22 µM
TGI [51]: > 100 µM
GI50 [52]: 1.64 µM
TGI [52]: 4.27 µM
GI50 [53]: 1.65 µM
TGI [53]: 4.29 µM
GI50 [54]: 2.58 µM
TGI [54]: 4.17 µM
GI50 [55]: 1.09 µM
TGI [55]: 2.67 µM
GI50 [56]: 1.63 µM
TGI [56]: 3.12 µM
GI50 [57]: 1.13 µM
TGI [57]: 2.49 µM
GI50 [58]: 1.29 µM
TGI [58]: 2.59 µM
